Entries after “also recorded” stand apart in the source; their conditions may differ.
Key:
[1] = test system: hepatocytes from adult mouse livers; test: Primary adult mouse hepatocyte culture: expansion of hepatic stem (oval) cells; assay type: cell-based; details: for oval cells in hepatocyte culture: medium supplemented with 10 μM AGN 194310 or TEPA 10 μM, FIG. 1; for growth of cultured hepatocytes and appearance of hepatic stem (oval) cells: primary culture with EGF and HGF, TEPA 10 μM or AGN 194310 10 μM, compared with control cultures without additions
Experimental: Intact livers were harvested from 3 week old VLVC female mice (Harlan Laboratories, Jerusalem, Israel), dissected and washed twice with DMEM (Beit Haemek, Israel), incubated with DMEM in the presence 0.05% collagenase for 30 minutes at 37° C., ground and passed through a 200 μm mesh sieve, yielding individual hepatocytes. Cells were washed twice and viability was ascertained with trypan blue. Cells were plated in collagen-coated, 35 mm tissue culture plates at a density of 4-×10^4 live cells/ml in F12 media (containing 15 mM Hepes, 0.1% glucose, 10 mM sodium bicarbonate, 100 units/ml penicillin-streptomycin, glutamine, 0.5 units/ml insulin, 7.5 m cg/ml hydrocortisone, and 10% fetal bovine serum). Medium was changed after 12 hours, the cells were washed twice with phosphate buffered saline (PBS) and new medium was added. Medium was changed twice a week.
Hepatocytes were also grown in the presence of Epidermal Growth Factor (EGF), Platelet-Derived Growth Factor β chain (PDGF-BB), Fibroblast growth Factors (FGF-4) and Hepatocyte Growth Factor (HGF), at 20-50 ng/ml each, for the entire culturing period according to the method of Schwartz et al. (Schwartz R E, Reyes M, Koodie L, Jiang Y, Blackstad M, Lund T, Lenvik T, Johnson S, Hu W S, Verfaillie C M. Multipotent adult progenitor cells from bone marrow differentiate into functional hepatocyte-like cells. J Clin Invest. 2002; 109 (10): 1291-302). Hepatocytes were also grown in serum free medium according to the method of Runge et al. (Runge D, Runge D M, Jager D, Lubecki K A, Beer Stolz D, Karathanasis S, Kietzmann T, Strom S C, Jungermann K, Fleig W E, Michalopoulos G K. Serum-free, long-term cultures of human hepatocytes: maintenance of cell morphology, transcription factors, and liver-specific functions. Biochem Biophys Res Commun. 2000; 269(1): 46-53).
In all of the above-mentioned hepatocytes culture conditions, cells are grown in the presence or absence of the retinoic acid antagonist AGN 194310 or the transition metal chelator tetraethylenepentamine TEPA) at 10^−5 M.
After a period of 3 weeks, cultures treated with 10^−5 M AGN 194310 or TEPA were detached with 0.25% trypsin, split and replated at a 1:2 ratio. The cells were visualized with Giemsa staining.
Murine hepatocyte cultures supplemented with EGF and HGF were evaluated as primary cultures, or following first and second passages. First passage cultures were grown for 2 weeks, split 1:2 and cells stained 8 days later. Second passage cultures were similarly grown for 2 weeks, split 1:2, and grown for an additional week, then split 1:4 and similarly stained 4 days later.
Hepatocytes and ex-vivo expanded cells were fixed in methanol directly in their cell culture plates and each procedure performed by standard procedures as outlined below.
Ex-vivo expanded cells and hepatocytes were stained with Giemsa stain, according to manufacturer's instructions (Shandon, Pittsburg, Pa.) for 4 minutes at room temperature, washed in buffer solution for 4 minutes, washed 3-4 times with rinse solution and visualized by light microscopy. Nuclei were stained with hematoxylin (Dako, Carpinteria, Calif.).

[2] = cited from earlier work
[3] = test system: cord-blood-derived, bone marrow-derived, and peripheral blood derived stem and progenitor cells; details: grown without a feeder layer; cited from earlier work
[4] = test system: stem and progenitor hematopoietic cells; details: cited from earlier work
[5] = test system: erythroid progenitor cells, cultured mouse erythroleukemia cells, embryonal stem cells, and hepatocytes in primary hepatocyte culture; details: cited from earlier work

Row | persistence of treated hepatocyte cultures in culture ([1]; primary hepatocyte cultures) | SMILES | oval cells in hepatocyte culture [1] | growth of cultured hepatocytes and appearance of hepatic stem (oval) cells [1] | membrane permeability [2] | fraction of CD34+ cells and their long-term clonability [3] | long term ex vivo stem cell proliferation and differentiation [4] | proliferation and differentiation [5]
1 | – | CCc1ccc(C2=CC(C)(C)Sc3ccc(C#Cc4ccc(C(=O)O)cc4)cc32)cc1 [AGN 194310] | abundance of oval cells | clearly induced growth of the cultured hepatocytes, and the appearance of hepatic stem (oval) cells | – | – | – | –
2 | – | O=c1cc(N2CCOCC2)oc2c(-c3ccccc3)cccc12 [LY294002] | – | – | membrane permeable | – | – | –
3 | at least 3 weeks | NCCNCCNCCNCCN [TEPA, tetraethylenepentamine] | abundance of oval cells; also recorded: increase in the proportion of oval cells | clearly induced growth of the cultured hepatocytes, and the appearance of hepatic stem (oval) cells | – | greatly enhanced the fraction of CD34^+ cell and their long-term clonability | effective promotion of long term ex vivo stem cell proliferation, while inhibiting differentiation | Facilitation of proliferation while inhibiting differentiation
